The values below come from patent US20230322735A1, “AZETIDINYL TRYPTAMINES AND METHODS OF TREATING PSYCHIATRIC DISORDERS” (priority 2020, published 2023).

One assay addresses T1, 5-HT1A receptor (Homo sapiens, UniProt P08908).
T1 construct: host or cells: CHO cells
T1 sequence (P08908 1-422): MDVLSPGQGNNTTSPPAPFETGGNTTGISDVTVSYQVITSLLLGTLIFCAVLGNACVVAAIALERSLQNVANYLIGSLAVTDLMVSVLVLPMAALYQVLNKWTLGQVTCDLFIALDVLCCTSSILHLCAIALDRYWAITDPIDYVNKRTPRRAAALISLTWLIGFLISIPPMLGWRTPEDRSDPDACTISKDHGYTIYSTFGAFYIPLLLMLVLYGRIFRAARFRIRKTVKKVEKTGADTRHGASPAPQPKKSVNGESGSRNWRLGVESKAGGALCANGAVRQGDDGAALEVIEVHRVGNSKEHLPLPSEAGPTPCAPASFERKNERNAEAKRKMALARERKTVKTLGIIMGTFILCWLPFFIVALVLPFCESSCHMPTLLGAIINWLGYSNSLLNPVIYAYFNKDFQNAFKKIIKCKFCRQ
In words: FLIPR Ca2+ flux agonist assay at 5-HT1A (CHO cells). The assay is classed as cell-based. The procedure: A solution of 250 mM probenecid in 1 mL FLIPR assay buffer was prepared fresh. This was combined with a fluorescent dye (Fluo-4 Direct™) to make a final assay concentration of 2.5 mM. […] The fluorescent dye was then added to the assay plate along with assay buffer to a final volume of 40 μL. The cell plate was incubated for 50 min at 37° C. and 5% CO2 and placed into the FLIPR Tetra along with the compound plate. 10 μL of references and compounds were then transferred from the compound plate into the cell plate and the fluorescent signal was read.

A further assay has as its target T2, human 5-HT2C receptor (Homo sapiens, UniProt P28335).
T2 sequence (P28335 33-458): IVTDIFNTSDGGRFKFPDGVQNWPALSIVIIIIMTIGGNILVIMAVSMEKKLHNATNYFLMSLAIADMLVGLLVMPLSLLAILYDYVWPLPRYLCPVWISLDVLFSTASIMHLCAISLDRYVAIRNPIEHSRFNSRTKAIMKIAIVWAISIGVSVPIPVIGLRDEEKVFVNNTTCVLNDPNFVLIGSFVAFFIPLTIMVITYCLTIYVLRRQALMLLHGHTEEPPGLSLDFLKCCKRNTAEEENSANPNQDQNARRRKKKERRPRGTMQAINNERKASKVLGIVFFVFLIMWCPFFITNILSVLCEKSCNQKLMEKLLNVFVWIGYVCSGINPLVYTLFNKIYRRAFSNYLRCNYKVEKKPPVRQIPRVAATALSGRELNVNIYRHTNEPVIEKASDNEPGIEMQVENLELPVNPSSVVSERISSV
Nature of the assay: cell-based. The settings on record: Ca2+ flux, agonist mode. Background: A change in cytosolic calcium serves as a functional read-out for many receptors and channels.

Take `Oc1cccc2[nH]cc(CCN3CCC3)c12` [Compound 2, 3-(2-(azetidin-1-yl)ethyl)-1H-indol-4-ol]: the EC50 (as a rule, the concentration needed to bring the measured effect to its halfway point) on 5-HT1A receptor came to 1030 nM; on human 5-HT2C receptor, 279 nM. In addition, the “5-HT1A % Act @ Max Dose” value at 5-HT1A receptor (Ca2+ flux, agonist mode, CHO cells) is 102%. In addition, the “5-HT2C % Act @ Max Dose” value on human 5-HT2C receptor was determined as 48.4%.
